Reference: patent US20190374533A1, “COMPOUNDS AND METHODS FOR INHIBITING NHE-MEDIATED ANTIPORT IN THE TREATMENT OF DISORDERS ASSOCIATED WITH FLUID RETENTION OR SALT OVERLOAD AND GASTROINTESTINAL TRACT DISORDERS” (Ardelyx, Inc., priority 2008, published 2019)
Counter-ions that a name gives are not always drawn. Like-named read-outs stand apart in the source and are kept apart here.

Experiments:
rat NHE-3 = biological target: T1, rat NHE-3 (Rattus norvegicus, UniProt P26433); experiment: Cell-based assay of NHE-3 activity (Pharmacological Test Example 1); details: OK cells expressing rat NHE-3; 0-30 uM test compound, 5 uM EIPA; read-out: rat NHE-3 Average pIC50 (converted)
T1 construct: expressed in transfected cells; host or cells: Opossum kidney (OK) cells (ATCC), electroporated
T1 sequence (P26433 29-831): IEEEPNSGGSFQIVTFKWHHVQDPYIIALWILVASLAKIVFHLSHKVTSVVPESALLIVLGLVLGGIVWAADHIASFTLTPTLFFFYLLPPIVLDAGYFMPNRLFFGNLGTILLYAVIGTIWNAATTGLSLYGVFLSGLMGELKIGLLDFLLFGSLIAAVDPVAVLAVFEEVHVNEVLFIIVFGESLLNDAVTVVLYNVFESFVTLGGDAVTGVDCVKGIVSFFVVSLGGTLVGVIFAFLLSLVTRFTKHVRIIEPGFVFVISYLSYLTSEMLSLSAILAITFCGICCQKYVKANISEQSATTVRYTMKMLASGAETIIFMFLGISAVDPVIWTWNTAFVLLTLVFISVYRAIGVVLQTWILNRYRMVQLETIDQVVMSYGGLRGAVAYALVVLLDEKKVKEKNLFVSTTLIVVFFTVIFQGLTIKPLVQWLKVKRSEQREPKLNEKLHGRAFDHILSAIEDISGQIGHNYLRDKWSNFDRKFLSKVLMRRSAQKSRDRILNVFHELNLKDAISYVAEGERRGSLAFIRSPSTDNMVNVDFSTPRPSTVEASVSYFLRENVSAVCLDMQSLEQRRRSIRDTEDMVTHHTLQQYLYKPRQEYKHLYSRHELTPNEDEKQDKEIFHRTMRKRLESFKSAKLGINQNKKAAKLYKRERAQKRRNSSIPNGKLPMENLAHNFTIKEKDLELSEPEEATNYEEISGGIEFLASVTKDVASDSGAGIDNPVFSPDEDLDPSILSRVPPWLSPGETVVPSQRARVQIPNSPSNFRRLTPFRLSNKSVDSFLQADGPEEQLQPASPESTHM
Method in brief: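 Na+-dependent H+ exchange tracked with the pH-sensitive dye BCECF in opossum kidney cells transiently expressing rat NHE-3. Intracellular acidification by NH4Cl prepulse, then 10 min in ammonium- and Na+-free HEPES, pH 7.4, room temperature. Initial rates averaged over 3-6 replicates give pIC50.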

fecal water content = experiment: Pharmacodynamic model: effect of test compounds on fecal water content; type: in vivo, rat; details: female Sprague Dawley rats, 3 mg/kg oral, feces collected 16 hrs; for % Fecal water: mean of 6
Procedure: Normal female Sprague Dawlev rats (Charles-River laboratories international, Hollister, Calif.), 7-8 weeks old with body weight 175-200 g were acclimated for at least 3 days before proceeding to experiments. The animals were provided food (Harlan Teklad 2018c) and water ad lib, through the experiment. Animals were randomly grouped with 6 rats per group.
The experiments were initiated by orally dosing test compounds at 3 mg/kg in volume of 10 ml/kg. Rats from control group were gavaged with the same volume of vehicle (water). After dosing, rats were placed in metabolic cages for 16 hrs (overnight). Food and water consumption were monitored. After sixteen hours, feces and urine were collected. The percent of fecal water was measured by weighing fecal samples before and after drying.
Representative data of % fecal water content are shown in Table 12 (data are expressed as means, with 6 animals per data point). The differences between control and treated groups were evaluated by one way ANOVA with Dunnett post tests. Results are significant if p<0.05.

urinary sodium levels = experiment: Pharmacodynamic model: effect of test compounds on urinary sodium levels; type: in vivo, rat; details: rats, several oral dose levels, corrected for sodium intake (FIGS. 3A and 3B)
Procedure: It is anticipated that the reduction of absorption of sodium from the intestine will be reflected in reduced levels of sodium in the urine. To test this, the protocols in Example 13 were repeated, but urine was collected in addition to feces. Urine sodium levels were analyzed by ion chromatography (IC), and the amound of sodium excreted in the urine was corrected for variations in sodium intake by measuring food consumption.

[1] = human absorption data; cited from earlier work
[2] = Determination of compound Cmax and AUC; type: in vivo; details: rat; Sprague-Dawley rats, oral gavage, serum 0.5-4 h; actual oral dose (mg/kg) given
Method in brief: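 Sprague-Dawley rats dosed orally by gavage at 2.5 mg/kg; serum sampled at 0.5, 1, 2 and 4 h. Acetonitrile protein precipitation, then LC/MS/MS quantitation against a standard curve.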

NHE-1 [3] = biological target: NHE-1 (Homo sapiens, UniProt P19634); experiment: Inhibition of NHE-1, literature data (Table 1), species not marked; type: cell-based; details: selectivity NHE-1 over NHE-3, from Table 1
NHE-1 (Homo sapiens, UniProt P19634), sequence (P19634 whole entry, species assumed, canonical isoform): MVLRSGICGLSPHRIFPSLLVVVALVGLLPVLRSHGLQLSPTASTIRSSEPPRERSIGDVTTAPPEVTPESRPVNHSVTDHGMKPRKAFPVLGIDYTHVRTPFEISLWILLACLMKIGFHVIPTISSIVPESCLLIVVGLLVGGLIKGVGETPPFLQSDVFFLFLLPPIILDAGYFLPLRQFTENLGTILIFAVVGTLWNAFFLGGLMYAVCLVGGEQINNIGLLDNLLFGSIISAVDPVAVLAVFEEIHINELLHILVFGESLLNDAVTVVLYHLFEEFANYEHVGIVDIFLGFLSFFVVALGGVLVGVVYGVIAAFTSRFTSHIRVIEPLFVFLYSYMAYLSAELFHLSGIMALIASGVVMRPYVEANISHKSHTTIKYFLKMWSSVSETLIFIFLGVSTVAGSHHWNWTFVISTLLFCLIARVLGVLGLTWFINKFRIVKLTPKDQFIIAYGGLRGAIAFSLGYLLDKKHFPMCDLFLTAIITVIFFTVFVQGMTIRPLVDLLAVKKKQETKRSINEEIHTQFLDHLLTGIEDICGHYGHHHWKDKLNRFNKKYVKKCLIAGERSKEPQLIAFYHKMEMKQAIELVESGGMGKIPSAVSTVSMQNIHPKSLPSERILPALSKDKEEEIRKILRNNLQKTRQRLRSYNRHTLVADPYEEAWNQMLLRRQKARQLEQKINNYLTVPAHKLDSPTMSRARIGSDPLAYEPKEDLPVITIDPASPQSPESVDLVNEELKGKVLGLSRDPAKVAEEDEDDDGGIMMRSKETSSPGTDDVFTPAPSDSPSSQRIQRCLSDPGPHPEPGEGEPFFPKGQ
Text: Shown below are examples of various NHE inhibiting small molecules and their selectivity across the NHE-1, -2 and -3 isoforms. (See, e.g., B. Masereel et al., An Overview of Inhibitors of Na+/H+ Exchanger, European J. of Med. Chem., 38, pp. 547-554 (2003), the entire contents of which is incorporated by reference here for all relevant and consistent purposes). […] It is thus possible to engineer NHE-3 selectivity into a chemical series optim/zed for potency against another antiporter isoform; that is, the inhibitor classes exemplified in the art may be suitably modified for activity and selectivity against NHE-3 (or alternatively NHE-2 and/or NHE-8), as well as being modified to be rendered substantially impermeable or substantially systemically non-bioavailable.

[4] = test system: fecal water content, urinary sodium, fecal form; experiment: Pharmacodynamic model: addition of a fluid absorbing polymer (1% Psyllium) to chow; type: in vivo, rat; details: rats, chow with 1% Psyllium (FIGS. 5A-5C)
Text: Rats were monitored for fecal water content as in Example 13, with the addition of a second group that were fed chow with the addition of 1% Psyllium to their diet. In addition to fecal water and urinary sodium, fecal form was monitored on a scale of 1-5, where 1 is a normal pellet, 3 indicates soft and unformed pellets, and 5 indicates watery feces.

[5] = test system: acute stress-induced visceral hypersensitivity; experiment: Effect on acute stress-induced visceral hypersensitivity (colorectal distension); type: in vivo, rat; details: female Wistar rats, partial restraint stress, 10 mg/kg oral, at 45 and 60 mm Hg, p<0.05 (FIG. 6)
Procedure: Female Wistar rats weighing 220-250 g were prepared for electromyography. The animals were anaesthetized, and three pairs of nichrome wire electrodes were implanted bilaterally in the striated muscles at 3 cm laterally from the midline. The free ends of electrodes were exteriorised on the back of the neck and protected by a glass tube attached to the skin. Electromyographic recordings (EMG) were begun 5 days after surgery. The electrical activity of the abdominal striated muscles were recorded with an electromyograph machine (Mini VIII; Alvar, Paris, France) using a short time constant (0.03 sec.) to remove low-frequency signals (<3 Hz).
Partial restraint stress (PRS), a relatively mild stress, was performed as follows. Briefly, animals were lightly anaesthetized with ethyl-ether, and their […], upper forelimbs and thoracic trunk were wrapped in a confining harness of paper tape to restrict, but not prevent their body movements and placed in their home cage for 2 hours. Control sham-stress animals were anaesthetized but not wrapped. […]
Colorectal distension (CRD) was accomplished as follows: rats were placed in a plastic tunnel, where they were not allowed to move or escape daily during 3 consecutive days (3 h/day) before any CRD. […] For each parameter studied (the number of abdominal contractions for each 5-min period during rectal distension) data is expressed as mean±SEM. […]

NHE-1 [6] = biological target: NHE-1 (Rattus norvegicus, UniProt P26431); details: * = from rat; read-out: IC50 or Ki, NHE-1; cited from earlier work
NHE-1 (Rattus norvegicus, UniProt P26431), sequence (P26431 whole entry): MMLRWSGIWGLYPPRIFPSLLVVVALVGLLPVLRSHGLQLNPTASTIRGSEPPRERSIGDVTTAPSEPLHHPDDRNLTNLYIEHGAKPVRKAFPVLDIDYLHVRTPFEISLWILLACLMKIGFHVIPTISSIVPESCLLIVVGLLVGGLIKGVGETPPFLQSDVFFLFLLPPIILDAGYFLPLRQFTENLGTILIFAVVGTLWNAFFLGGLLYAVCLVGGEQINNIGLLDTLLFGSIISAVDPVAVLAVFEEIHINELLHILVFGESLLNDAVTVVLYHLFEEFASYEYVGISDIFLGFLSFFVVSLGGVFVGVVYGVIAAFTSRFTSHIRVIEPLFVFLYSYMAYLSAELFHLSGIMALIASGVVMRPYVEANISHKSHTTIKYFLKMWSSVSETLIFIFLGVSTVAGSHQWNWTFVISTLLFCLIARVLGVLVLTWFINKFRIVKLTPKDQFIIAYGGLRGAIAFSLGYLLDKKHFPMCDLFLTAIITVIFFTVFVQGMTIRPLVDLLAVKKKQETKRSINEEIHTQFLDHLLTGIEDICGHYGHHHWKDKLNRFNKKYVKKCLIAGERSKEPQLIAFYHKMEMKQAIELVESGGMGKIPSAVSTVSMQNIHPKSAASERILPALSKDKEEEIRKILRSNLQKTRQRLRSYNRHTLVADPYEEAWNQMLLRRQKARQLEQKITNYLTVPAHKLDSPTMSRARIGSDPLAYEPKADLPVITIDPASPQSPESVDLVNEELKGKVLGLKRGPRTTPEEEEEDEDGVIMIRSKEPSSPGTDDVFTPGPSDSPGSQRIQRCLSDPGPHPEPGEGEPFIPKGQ

NHE-3 = NHE-3 (Rattus norvegicus, UniProt P26433); details: cited from earlier work
NHE-3, sequence (P26433 29-831): as the sequence (P26433 29-831) above

[7] = test system: gastrointestinal motility; experiment: Restoration of gastrointestinal motility in opioid induced constipation (loperamide); type: in vivo, mice; details: vehicle oral / loperamide s.c. (0.3 to 6 mg/kg), 30-minute period

With `CN1Cc2c(Cl)cc(Cl)cc2[C@H](c2ccc(S(=O)(=O)NCCOCCOCCNC(=O)COCC(=O)NCCOCCOCCNS(=O)(=O)c3ccc([C@@H]4CN(C)Cc5c(Cl)cc(Cl)cc54)cc3)cc2)C1` (single isomer, unassigned) [Example 201, 2,2′-oxybis(N-(2-(2-(2-(4-((S or R)-6,8-dichloro-2-methyl-1,2,3,4-tetrahydroisoquinolin-4-yl)phenylsulfonamido)ethoxy)ethoxy)ethyl)acetamide) bis-hydrochloride salt] the IC50 (rat NHE-3) was less than 100 nM, the “% Fecal water (% of control)” value (fecal water content) was 127% of control and the “% Fecal water” value (fecal water content) was 63%. For the same molecule, the “amount of sodium excreted in the urine” value (urinary sodium levels) was “diminishes significantly and dose dependently”.
In the case of `CCN1CCCC1CNC(=O)c1cc(S(N)(=O)=O)ccc1OC` (centres unmarked) [sulpiride], the “% FA” value [1] is given as 36%.
For `O=C(O)P(=O)(O)O` [foscarnet], the “% FA” value [1] is listed as 17%.
Molecule `CN1Cc2c(Cl)cc(Cl)cc2[C@H](c2cccc(S(=O)(=O)NCCOCCOCCOCCNC(=O)NCCCCNC(=O)NCCOCCOCCOCCNS(=O)(=O)c3cccc([C@@H]4CN(C)Cc5c(Cl)cc(Cl)cc54)c3)c2)C1` (single isomer, unassigned) [Example 244, (S or R)—N,N′-(13,20-dioxo-3,6,9,24,27,30-hexaoxa-12,14,19,21-tetraazadotriacontane-1,32-diyl)bis(3-((S or R)-6,8-dichloro-2-methyl-1,2,3,4-tetrahydroisoquinolin-4-yl)benzenesulfonamide)] has an IC50 (rat NHE-3) of less than 100 nM, an AUC [2] of less than 15 ng·h/mL and a Cmax [2] of less than 7 ng/mL. For the same molecule, the “% Fecal water (% of control)” value (fecal water content) was 118% of control, the “% Fecal water” value (fecal water content) was 61% and the “amount of sodium excreted in the urine” value (urinary sodium levels) was “diminishes significantly and dose dependently”.
In the case of `OC[C@@H](O)[C@@H](O)[C@H](O)[C@H](O)CO` [mannitol, Mannitol, reference compound], the “% FA” value [1] is listed as 26%.
With `C/C(=C\c1cccc(/C=C(\C)C(=O)NC(=N)N)c1)C(=O)N=C(N)N` [Example S-2120, S-2120] the “fold more active against NHE-1 than NHE-3” value (NHE-1 [3]) was “over 500 fold”.
For `CN1Cc2c(Cl)cc(Cl)cc2C(c2cccc(S(=O)(=O)NCCOCCOCCOCCNC(=O)C(O)C(O)C(=O)NCCOCCOCCOCCNS(=O)(=O)c3cccc(C4CN(C)Cc5c(Cl)cc(Cl)cc54)c3)c2)C1` (single isomer, unassigned) [Example 224, N1,N4-bis(2-(2-(2-(2-(3-((S or R)-6,8-dichloro-2-methyl-1,2,3,4-tetrahydroisoquinolin-4-yl)phenylsulfonamido)ethoxy)ethoxy)ethoxy)ethyl)-2,3-dihydroxysuccinamide], the “% Fecal water (% of control)” value (fecal water content) was 125% of control, the “% Fecal water” value (fecal water content) was 65% and the “ability to increase fecal water content or decrease urinary sodium with Psyllium in the diet” value [4] was “without impacting the ability”. For the same molecule, the “visceral hypersensitivity to distension (abdominal contractions)” value [5] was “reduces visceral hypersensitivity to distension”.
In the case of `C=CCc1ccccc1OCC(O)CNC(C)C` (centres unmarked) [alprenolol], the “% FA” value [1] is given as 96%.
For `N=C(N)NC(=O)c1nc(Cl)c(N)nc1N` [Amiloride, amiloride], the IC50 (NHE-1 [6]) is given as 1000 to 1600 nM, the IC50 (NHE-3; * = from rat, read-out: IC50 or Ki, NHE-3) is given as greater than 100000 nM and the IC50 (NHE-3; as restated in the text on Table 1, read-out: NHE-3 IC50) is given as greater than 100000 nM.
For `OC[C@H]1O[C@H](OC[C@H]2O[C@H](O[C@]3(CO)O[C@H](CO)[C@@H](O)[C@@H]3O)[C@H](O)[C@@H](O)[C@@H]2O)[C@H](O)[C@@H](O)[C@H]1O` [raffinose], the “% FA” value [1] is listed as 0.3%.
In the case of `NC[C@H]1CC[C@H](C(=O)O)CC1` [tranexamic acid], the “% FA” value [1] is listed as 55%.
For `Cc1cc(=O)n(-c2ccccc2)n1C` [phenazone], the “% FA” value [1] is listed as 97%.
In the case of `Cc1ccccc1N1C(=O)c2cc(S(N)(=O)=O)c(Cl)cc2NC1C` (centres unmarked) [metolazone, Metolazone, reference compound], the “% FA” value [1] is listed as 64%.
For `CN(C)C(=O)C(CCN1CCC(O)(c2ccc(Cl)cc2)CC1)(c1ccccc1)c1ccccc1` [loperamide, reference compound], the “length of the small intestine travelled by the Evans Blue dye front” value [7] was roughly 25%.
For `CC(=O)Nc1ccc(OCC(O)CNC(C)C)cc1` (centres unmarked) [practolol], the “% FA” value [1] is given as 95%.
For `C/C(=C\c1cc(C)ccc1/C=C(\C)C(=O)NC(=N)N)C(=O)N=C(N)N` [Example S-3226, S-3226], the “fold more active against NHE-1 than NHE-3” value (NHE-1 [3]) was “reversed”.
